For five compounds, Ki and Activity results are on record in ChEMBL document CHEMBL3286092, “Discovery of 1-arylpyrrolidone derivatives as potent p53-MDM2 inhibitors based on molecule fusing strategy” (Bioorg Med Chem Lett, 2014).

Broadly, the Ki is the equilibrium dissociation constant of an inhibitor or competing ligand from its target.

Some results are limits rather than exact numbers.

Test [1] deals with E3 ubiquitin-protein ligase Mdm2 (Homo sapiens, UniProt Q00987). Description: Binding affinity to MDM2 (unknown origin) assessed as inhibition of interaction with p53 after 1 hr by fluorescence polarization binding assay.
Sequence of E3 ubiquitin-protein ligase Mdm2 (Q00987 whole entry): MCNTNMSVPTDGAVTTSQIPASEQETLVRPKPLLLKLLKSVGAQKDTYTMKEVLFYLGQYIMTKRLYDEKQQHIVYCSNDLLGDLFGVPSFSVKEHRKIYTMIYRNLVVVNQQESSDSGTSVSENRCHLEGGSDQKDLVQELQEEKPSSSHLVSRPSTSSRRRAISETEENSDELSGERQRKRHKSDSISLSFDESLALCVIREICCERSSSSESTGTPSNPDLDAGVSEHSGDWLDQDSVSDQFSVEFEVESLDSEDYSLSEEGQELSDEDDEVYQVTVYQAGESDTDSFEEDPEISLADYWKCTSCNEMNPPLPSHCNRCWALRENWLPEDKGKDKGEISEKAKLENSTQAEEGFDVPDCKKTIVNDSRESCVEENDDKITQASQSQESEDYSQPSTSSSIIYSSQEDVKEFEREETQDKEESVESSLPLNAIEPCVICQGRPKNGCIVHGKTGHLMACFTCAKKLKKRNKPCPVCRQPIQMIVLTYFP
In the next test the test system is A549. Description: Induction of p53 level in human A549 cells after 4 hrs by Western blotting analysis. Type of test: functional, cell-based. In general terms: Immunoblotting shows a protein as a band on a membrane.

Consider `C[C@@H](NC1=C(C(=O)c2ccccc2)C(c2ccc(Br)cc2)N(Cc2ccc(C(F)(F)F)cc2F)C1=O)c1ccccc1` (stereo not given in full), for which the Ki in test [1] was > 100 µM.
Same read-out and setting: the result for `CC(C)OC1=C(C(=O)c2ccccc2)C(c2ccc(Br)cc2)N(Cc2ccc(C(F)(F)F)cc2F)C1=O` (stereo not given) reads > 100 µM.
Take `CC(C)OC1=C(C(=O)c2ccccc2)C(c2ccc(Br)cc2)N(Cc2ccc(C(F)(F)F)cc2OC(C)C)C1=O` (stereo not given): the inhibitory constant (Ki) in test [1] is > 100 µM.
`CC(C)Oc1cc(C(F)(F)F)ccc1CN1C(=O)C(N[C@H](C)c2ccccc2)=C(C(=O)c2ccccc2)C1c1ccc(Br)cc1` (stereo not given in full): the Activity result in the test on A549 is “Dose-dependent effect”.
For `COc1cc(C(F)(F)F)ccc1CN1C(=O)C(N[C@H](C)c2ccccc2)=C(C(=O)c2ccccc2)C1c1ccc(Br)cc1` (stereo not given in full), the inhibitory constant (Ki) in test [1] was > 100 µM.
